Laboratory results as given in patent US12595253B2, “Benzamides of pyrazolylamino-pyrimidinyl derivatives, and compositions and methods thereof” (LYNK PHARMACEUTICALS CO. LTD., priority 2019, dated 2026).

How the values were obtained:
Assay type in all cases: biochemical
JAK2 = target: T1, JAK2 (Homo sapiens, UniProt O60674); assay: JAK2 microfluidic kinase assay (Caliper EZ Reader II, FAM labeled peptide substrate)
T1 construct: purchased Carna Biosciences
Summary of the method: (§1)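 Activity measured in 50 mM HEPES, 0.01% Brij35, 10 mM MgCl2, 2 mM DTT by microfluidic separation of phosphorylated FAM peptide. Enzyme conditions set for 10% substrate conversion.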

TYK2 = target: T2, TYK2 (Homo sapiens, UniProt P29597); assay: TYK2 microfluidic kinase assay (Caliper EZ Reader II, FAM labeled peptide substrate)
T2 construct: purchased Carna Biosciences
T2 sequence (P29597 whole entry): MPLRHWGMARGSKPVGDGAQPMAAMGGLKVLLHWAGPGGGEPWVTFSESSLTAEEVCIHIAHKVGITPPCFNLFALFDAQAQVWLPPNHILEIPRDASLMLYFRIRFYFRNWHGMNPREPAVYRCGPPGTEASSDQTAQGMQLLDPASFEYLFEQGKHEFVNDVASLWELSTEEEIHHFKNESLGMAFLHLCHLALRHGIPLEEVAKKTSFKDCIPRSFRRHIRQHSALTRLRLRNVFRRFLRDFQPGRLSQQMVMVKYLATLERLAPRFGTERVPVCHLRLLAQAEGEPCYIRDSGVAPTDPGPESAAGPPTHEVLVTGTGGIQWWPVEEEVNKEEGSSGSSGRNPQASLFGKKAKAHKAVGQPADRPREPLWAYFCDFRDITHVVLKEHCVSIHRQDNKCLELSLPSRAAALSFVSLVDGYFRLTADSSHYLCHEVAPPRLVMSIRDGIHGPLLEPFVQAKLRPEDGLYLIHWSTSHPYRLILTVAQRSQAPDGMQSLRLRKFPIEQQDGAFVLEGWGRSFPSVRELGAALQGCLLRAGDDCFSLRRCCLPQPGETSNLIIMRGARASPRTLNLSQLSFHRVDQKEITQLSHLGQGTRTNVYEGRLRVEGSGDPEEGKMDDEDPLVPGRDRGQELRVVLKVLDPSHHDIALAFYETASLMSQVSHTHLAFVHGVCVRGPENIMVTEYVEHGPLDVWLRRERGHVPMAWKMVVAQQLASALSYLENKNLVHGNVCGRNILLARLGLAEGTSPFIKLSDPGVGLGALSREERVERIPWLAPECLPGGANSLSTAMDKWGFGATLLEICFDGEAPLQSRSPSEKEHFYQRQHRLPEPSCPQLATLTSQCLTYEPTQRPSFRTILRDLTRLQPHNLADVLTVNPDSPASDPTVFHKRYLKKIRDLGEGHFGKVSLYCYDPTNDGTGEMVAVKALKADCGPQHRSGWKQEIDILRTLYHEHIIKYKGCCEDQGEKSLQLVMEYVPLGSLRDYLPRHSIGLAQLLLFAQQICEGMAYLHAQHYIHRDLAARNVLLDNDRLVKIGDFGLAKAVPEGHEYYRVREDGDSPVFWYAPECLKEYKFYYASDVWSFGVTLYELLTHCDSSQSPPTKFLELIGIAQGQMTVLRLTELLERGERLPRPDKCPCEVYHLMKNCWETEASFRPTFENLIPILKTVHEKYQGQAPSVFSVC
Protocol: Compounds were tested against JAK1, JAK2, JAK2V617F and TYK2. Assay Formats: JAK activity was determined in the reaction buffer 50 mM HEPES, 0.01% Brij35, 10 mM MgCl2, 2 mM DTT by a microfluidic assay. The phosphorylation of a FAM labeled peptide substrate was monitored in the Caliper EZ Reader II (Perkin Elmer). The assay condition for each batch of enzyme (Carna Biosciences) was optimized to obtain 10% conversion rate of peptide substrate. The test compounds were dissolved in DMSO to a stock concentration of 10 mM. 3-fold serially diluted compounds with top concentration of 5 μM were pre-incubated with JAK1, JAK2, JAK2V617F or TYK2 at indicated concentrations for 10 min at ambient temperature. The final DMSO concentration of assay mixture was 1%. […] The reaction was stopped by adding 50 mM EDTA. The reaction time for JAK1, JAK2, JAK2V617F and TYK2 was 120 min, 20 min, 30 min and 10 min, respectively. […] And the well without compound but with equivalent DMSO was defined as no inhibition. The percent inhibition was calculated by the following formula. % Inhibition=(Conversionmax−Conversionsample)/(Conversionmax−Conversionmin)*100 • Conversionmax means the conversion rate in the positive well without addition of compound • Conversionmin means the conversion rate in the well without addition of enzyme • Conversionsample means the conversion rate of test compounds The dose-response (percent inhibition) curve was plotted and IC50 values were determined by GraphPad software.

JAK1 = target: T3, JAK1 (Homo sapiens, UniProt P23458); assay: JAK1 microfluidic kinase assay (Caliper EZ Reader II, FAM labeled peptide substrate); conditions: IC50 JAK1 (5 nM) (1 m MATP), JAK1 5 nM, 1 mM ATP
T3 construct: purchased Carna Biosciences
T3 sequence (P23458 whole entry): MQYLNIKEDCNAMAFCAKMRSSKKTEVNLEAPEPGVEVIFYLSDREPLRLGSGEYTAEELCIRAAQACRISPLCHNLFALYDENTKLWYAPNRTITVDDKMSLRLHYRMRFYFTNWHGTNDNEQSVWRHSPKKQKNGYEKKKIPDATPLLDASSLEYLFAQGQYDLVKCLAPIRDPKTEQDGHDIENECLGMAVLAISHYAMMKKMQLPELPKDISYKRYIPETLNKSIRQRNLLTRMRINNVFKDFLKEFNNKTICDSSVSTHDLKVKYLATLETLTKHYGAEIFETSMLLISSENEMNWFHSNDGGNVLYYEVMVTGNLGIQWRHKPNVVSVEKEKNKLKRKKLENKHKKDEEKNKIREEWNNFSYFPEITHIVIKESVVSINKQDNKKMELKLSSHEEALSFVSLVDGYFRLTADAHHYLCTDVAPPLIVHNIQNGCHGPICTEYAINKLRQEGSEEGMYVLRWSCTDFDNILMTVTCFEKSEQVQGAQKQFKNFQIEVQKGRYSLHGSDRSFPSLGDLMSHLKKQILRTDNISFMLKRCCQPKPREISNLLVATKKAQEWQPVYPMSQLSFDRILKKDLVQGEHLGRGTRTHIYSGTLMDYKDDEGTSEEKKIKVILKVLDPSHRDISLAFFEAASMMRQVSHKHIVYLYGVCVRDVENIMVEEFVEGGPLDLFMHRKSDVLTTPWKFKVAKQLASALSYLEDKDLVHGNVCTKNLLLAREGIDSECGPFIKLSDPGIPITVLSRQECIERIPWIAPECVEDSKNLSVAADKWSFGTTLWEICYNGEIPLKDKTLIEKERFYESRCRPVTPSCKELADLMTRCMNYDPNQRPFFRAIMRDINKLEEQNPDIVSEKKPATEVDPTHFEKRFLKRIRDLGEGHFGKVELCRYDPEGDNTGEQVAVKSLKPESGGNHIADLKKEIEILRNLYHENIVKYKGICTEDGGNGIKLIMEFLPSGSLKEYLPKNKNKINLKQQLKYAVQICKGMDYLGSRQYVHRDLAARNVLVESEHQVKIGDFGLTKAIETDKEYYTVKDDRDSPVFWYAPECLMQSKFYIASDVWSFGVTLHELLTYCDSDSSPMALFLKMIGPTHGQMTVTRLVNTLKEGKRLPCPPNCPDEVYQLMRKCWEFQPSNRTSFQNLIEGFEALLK
Summary of the method: as §1

[1] = IC50 JAK2 ([…]) (1 mM ATP), 1 mM ATP
[2] = IC50 TYK2 ([…]) (1 mM ATP), TYK2 […], 1 mM ATP

T1 sequence (O60674 whole entry): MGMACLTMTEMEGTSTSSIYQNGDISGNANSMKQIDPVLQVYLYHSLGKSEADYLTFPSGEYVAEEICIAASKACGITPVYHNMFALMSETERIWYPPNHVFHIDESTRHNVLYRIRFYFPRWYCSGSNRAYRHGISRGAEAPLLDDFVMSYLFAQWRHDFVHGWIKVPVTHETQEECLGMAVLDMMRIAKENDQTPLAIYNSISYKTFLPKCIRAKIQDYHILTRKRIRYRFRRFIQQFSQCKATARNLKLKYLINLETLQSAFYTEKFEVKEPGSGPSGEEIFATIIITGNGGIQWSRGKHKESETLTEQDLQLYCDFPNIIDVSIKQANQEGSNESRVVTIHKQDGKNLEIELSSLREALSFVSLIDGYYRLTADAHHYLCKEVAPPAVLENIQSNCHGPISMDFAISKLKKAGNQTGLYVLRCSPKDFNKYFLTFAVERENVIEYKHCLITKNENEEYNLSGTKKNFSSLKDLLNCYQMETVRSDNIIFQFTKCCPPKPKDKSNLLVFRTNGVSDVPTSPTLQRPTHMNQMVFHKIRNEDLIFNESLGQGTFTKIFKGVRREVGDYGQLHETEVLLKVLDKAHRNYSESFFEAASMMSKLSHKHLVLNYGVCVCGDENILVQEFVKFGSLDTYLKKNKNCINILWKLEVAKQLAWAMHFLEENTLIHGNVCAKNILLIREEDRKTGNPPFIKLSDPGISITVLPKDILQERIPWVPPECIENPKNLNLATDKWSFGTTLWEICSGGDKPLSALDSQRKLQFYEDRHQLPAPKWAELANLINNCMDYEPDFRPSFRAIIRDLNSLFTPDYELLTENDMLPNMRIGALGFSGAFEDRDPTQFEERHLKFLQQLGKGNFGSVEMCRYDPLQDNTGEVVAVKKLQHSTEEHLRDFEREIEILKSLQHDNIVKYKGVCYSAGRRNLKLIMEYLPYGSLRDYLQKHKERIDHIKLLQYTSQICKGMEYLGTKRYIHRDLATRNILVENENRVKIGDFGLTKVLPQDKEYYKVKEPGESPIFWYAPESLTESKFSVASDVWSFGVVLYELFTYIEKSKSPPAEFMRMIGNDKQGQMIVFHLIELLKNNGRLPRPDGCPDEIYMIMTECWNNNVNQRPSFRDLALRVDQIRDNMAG

Row | SMILES | IC50 (JAK2; [1]) | IC50 (TYK2; [2]) | IC50 (JAK1) | IC50 (JAK2; IC50 JAK2 ([…]) (Km ATP), Km ATP) | IC50 (TYK2; IC50 TYK2 (10 nM) (Km ATP), TYK2 10 nM, Km ATP)
1 | Cc1cnc(Nc2ccn(C)n2)nc1-c1ccc(C(=O)NCC#N)cc1 [Example 107, N-(Cyanomethyl)-4-(5-methyl-2-((1-methyl-1H-pyrazol-3-yl)amino)pyrimidin-4-yl)benzamide] | 1150 nM | > 5000 nM | 2310 nM | 28.1 nM | 
2 | COC[C@@H](C#N)NC(=O)c1ccc(-c2nc(Nc3cnn(CCO)c3)ncc2C)cc1 [Example 221, (R)—N-(1-cyano-2-methoxyethyl)-4-(2-((1-(2-hydroxyethyl)-1H-pyrazol-4-yl)amino)-5-methylpyrimidin-4-yl)benzamide] | 54.8 nM | 62.3 nM | 10.4 nM |  | 
3 | C[C@H](C#N)NC(=O)c1ccc(-c2nc(Nc3cnn(C4CCN(C)CC4)c3)ncc2Cl)cc1 [Example 58, (R)-4-(5-Chloro-2-((1-(1-methylpiperidin-4-yl)-1H-pyrazol-4-yl)amino)pyrimidin-4-yl)-N-(1-cyanoethyl)benzamide] | 42.2 nM | 272 nM | 34.8 nM |  | 
4 | C[C@@H](C#N)NC(=O)c1ccc(-c2nc(Nc3cnn(C4CCN(C(=O)CO)CC4)c3)ncc2Cl)cc1 [Example 214, (S)-4-(5-chloro-2-((1-(1-(2-hydroxyacetyl)piperidin-4-yl)-1H-pyrazol-4-yl)amino)pyrimidin-4-yl)-N-(1-cyanoethyl)benzamide] | < 0.25 nM | 59.6 nM | 15.6 nM |  | 
5 | CC[C@@H](C#N)NC(=O)c1ccc(-c2nc(Nc3cnn(C4CC(C)(C)OC(C)(C)C4)c3)ncc2C)cc1 [Example 179, (S)—N-(1-cyanopropyl)-4-(5-methyl-2-((1-(2,2,6,6-tetramethyltetrahydro-2H-pyran-4-yl)-1H-pyrazol-4-yl)amino)pyrimidin-4-yl)benzamide] | 0.43 nM | < 0.25 nM | 6.03 nM |  | 
6 | N#CC1CN(C(=O)c2ccc(-c3nc(Nc4cnn(C5CC5)c4)ncc3C(F)F)cc2F)C1 [Example 126, 1-(4-(2-((1-Cyclopropyl-1H-pyrazol-4-yl)amino)-5-(difluoromethyl)pyrimidin-4-yl)-2-fluorobenzoyl)azetidine-3-carbonitrile] |  |  |  |  | 1770 nM
7 | Cc1cnc(Nc2cnn(C3CC3)c2)nc1-c1ccc(C(=O)N(C)CC#N)cc1 [Example 108, N-(cyanomethyl)-4-(2-((1-cyclopropyl-1H-pyrazol-4-yl)amino)-5-methylpyrimidin-4-yl)-N-methylbenzamide] | 461 nM | 1150 nM | 628 nM |  | 
8 | CCC[C@@H](C#N)NC(=O)c1ccc(-c2nc(Nc3cnn(C4CCNCC4)c3)ncc2C)cc1 [Example 175, (S)—N-(1-Cyanobutyl)-4-(5-methyl-2-((1-(piperidin-4-yl)-1H-pyrazol-4-yl)amino)pyrimidin-4-yl)benzamide] | 0.51 nM | 2.22 nM | 1.48 nM |  | 
9 | Cc1cnc(Nc2cnn(C3CCNCC3)c2)nc1-c1ccc(C(=O)NCC#N)cc1 [Example 212, N-(cyanomethyl)-4-(5-methyl-2-((1-(piperidin-4-yl)-1H-pyrazol-4-yl)amino)pyrimidin-4-yl)benzamide] | 0.47 nM | 76.4 nM | 7.81 nM |  | 
10 | N#CCNC(=O)c1ccc(-c2nc(Nc3cnn(CC#N)c3)ncc2Cl)cc1 [Example 41, 4-(5-Chloro-2-((1-(cyanomethyl)-1H-pyrazol-4-yl)amino)pyrimidin-4-yl)-N-(cyanomethyl)benzamide] | 31.8 nM | 71.2 nM | 6.45 nM |  | 

The next lines start with the values.

Row | IC50 (JAK2; [1]) | IC50 (TYK2; [2]) | IC50 (JAK1) | IC50 (JAK2; IC50 JAK2 ([…]) (Km ATP), Km ATP) | IC50 (TYK2; IC50 TYK2 (10 nM) (Km ATP), TYK2 10 nM, Km ATP) | SMILES
11 | 256 nM | 251 nM | 59.6 nM |  |  | N#CCNC(=O)c1ccc(-c2nc(Nc3cnn(CC#N)c3)ncc2F)cc1 [Example 45, N-(cyanomethyl)-4-(2-((1-(cyanomethyl)-1H-pyrazol-4-yl)amino)-5-fluoropyrimidin-4-yl)benzamide]
12 | 0.91 nM | 33.3 nM | 1.88 nM |  |  | Cc1cnc(Nc2cnn(C3CCN(CCO)CC3)c2)nc1-c1ccc(C(=O)N[C@@H](C)C#N)cc1 [Example 204, (S)—N-(1-cyanoethyl)-4-(2-((1-(1-(2-hydroxyethyl)piperidin-4-yl)-1H-pyrazol-4-yl)amino)-5-methylpyrimidin-4-yl)benzamide]
13 | 0.71 nM | 24.2 nM | 14.2 nM |  |  | Cc1cnc(Nc2cnn(C3C[C@@H](C)N[C@H](C)C3)c2)nc1-c1ccc(C(=O)N[C@@H](C)C#N)cc1 (stereo partly drawn) [Example 230, N—((S)-1-cyanoethyl)-4-(2-((1-(trans-2,6-dimethylpiperidin-4-yl)-1H-pyrazol-4-yl)amino)-5-methylpyrimidin-4-yl)benzamide]
14 | 22.1 nM | 45 nM | 3.83 nM |  |  | CC[C@@H](C#N)NC(=O)c1ccc(-c2nc(Nc3cnn(CCC#N)c3)ncc2Cl)cc1 [Example 190, (S)-4-(5-chloro-2-((1-(2-cyanoethyl)-1H-pyrazol-4-yl)amino)pyrimidin-4-yl)-N-(1-cyanopropyl)benzamide]
15 | 0.79 nM | 3.15 nM | 2.93 nM |  |  | Cc1cnc(Nc2cnn(C3CCNCC3)c2)nc1-c1ccc(C(=O)N[C@H](C#N)C2CC2)cc1 [Example 156, (S)—N-(cyano(cyclopropyl)methyl)-4-(5-methyl-2-((1-(piperidin-4-yl)-1H-pyrazol-4-yl)amino)pyrimidin-4-yl)benzamide]
16 | 30.8 nM | 30.2 nM |  |  |  | Cc1cnc(Nc2cn[nH]c2)nc1-c1ccc(C(=O)N[C@@H](C)C#N)cc1 [Example 199, (S)-4-(2-((1H-Pyrazol-4-yl)amino)-5-methylpyrimidin-4-yl)-N-(1-cyanoethyl)benzamide]
17 | 40.9 nM | 74 nM | 4.88 nM |  |  | Cc1cnc(Nc2cnn(CCC#N)c2)nc1-c1ccc(C(=O)N[C@@H](C)C#N)cc1 [Example 216, (S)—N-(1-cyanoethyl)-4-(2-((1-(2-cyanoethyl)-1H-pyrazol-4-yl)amino)-5-methylpyrimidin-4-yl)benzamide]
18 | < 0.25 nM | 0.55 nM | 16.7 nM |  |  | C[C@@H](C#N)NC(=O)c1ccc(-c2nc(Nc3cnn(C4CC(C)(C)OC(C)(C)C4)c3)ncc2Cl)cc1 [Example 206, (S)-4-(5-Chloro-2-((1-(2,2,6,6-tetramethyltetrahydro-2H-pyran-4-yl)-1H-pyrazol-4-yl)amino)pyrimidin-4-yl)-N-(1-cyanoethyl)benzamide]
19 | 36.6 nM | 50.6 nM | 5.67 nM |  |  | C[C@@H](C#N)NC(=O)c1ccc(-c2nc(Nc3cnn(CC(N)=O)c3)ncc2Cl)cc1 [Example 47, (S)-4-(2-((1-(2-amino-2-oxoethyl)-1H-pyrazol-4-yl)amino)-5-chloropyrimidin-4-yl)-N-(1-cyanoethyl)benzamide]
20 | 42.6 nM | 66.9 nM | 8.95 nM |  |  | CC[C@@H](C#N)NC(=O)c1ccc(-c2nc(Nc3cnn(C(C)C(F)(F)F)c3)ncc2C)cc1 (single isomer, unassigned) [Example 225, N—((S)-1-Cyanopropyl)-4-(5-methyl-2-((1-((R*)-1,1,1-trifluoropropan-2-yl)-1H-pyrazol-4-yl)amino)pyrimidin-4-yl)benzamide]
21 | 0.78 nM | 1.04 nM | 6.66 nM |  |  | Cc1cnc(Nc2cnn(C3CCNCC3)c2)nc1-c1ccc(C(=O)N[C@@H](C)C#N)cc1 [Example 170, (S)—N-(1-Cyanoethyl)-4-(5-methyl-2-((1-(piperidin-4-yl)-1H-pyrazol-4-yl)amino)pyrimidin-4-yl)benzamide]
